Series [1] has as its system human red blood cells. Nature of the series: Hemolysis assay with red blood cells. Conditions: 200 μM. Here is the method: The hemolysis activities of select compounds of the invention were determined. […] The washing was repeated three times with the buffer. In 96-well plate, test compounds were added to the buffer from DMSO stocks. […] The plate was then incubated for 1 hour at 37° C. After incubation, the plate was centrifuged for 5 minutes at 3,500 rpm. Then 80 μL of the supernatant was transferred to another 96-well plate, and the optical density (OD) was read at 405 nm. DMSO served as the negative control (0% hemolysis), while Triton X served as the positive control (100% hemolysis). The percent of hemolysis was calculated as (OD405 of the compound−OD405 of DMSO)/(OD405 of Triton X−OD405 of the buffer).
The washing was repeated three times with the buffer. In 96-well plate, test compounds were added to the buffer from DMSO stocks. […] The plate was then incubated for 1 hour at 37° C. After incubation, the plate was centrifuged for 5 minutes at 3,500 rpm. Then 80 μL of the supernatant was transferred to another 96-well plate and the optical density (OD) was read at 405 nm. DMSO served as our negative control (0% hemolysis) while Triton X served as our positive control (100% hemolysis). The percent of hemolysis was calculated as (OD405 of the test compound−OD405 DMSO)/(OD405 Triton X−OD405 buffer) from three independent experiments.

For series [2], the system named is MRSA-2 planktonic cells and biofilms. The experiment in a line: Calgary Biofilm Device (CBD) assay, MBC/MBEC. Conditions: Staphylococcus aureus, MRSA. In kind it is cell-based, Staphylococcus aureus.
Series [3] concerns MRSE (S. epidermidis ATCC 35984) planktonic cells and biofilms. The experiment in a line: Calgary Biofilm Device (CBD) assay, MBC/MBEC. The conditions noted are these: Table 8; for MBC: Staphylococcus epidermidis, read-out: MRSE 35984 MBC. It counts as cell-based, Staphylococcus epidermidis.
In series [4] the test system is MRSA-2. Nature of the series: MIC assay with Tiron or metal(II) cation co-treatment. In kind it is cell-based, Staphylococcus aureus.
In series [5] the test system is S. epidermidis 12228. The description is as above. In kind it is cell-based, Staphylococcus epidermidis.
Series [6] relates to E. faecium 700221 (VRE). The series is described as above. It counts as cell-based, Enterococcus faecium.
Series [7] concerns MRSA-2 (methicillin-resistant Staphylococcus aureus clinical isolate). Nature of the series: MIC assay (broth microdilution, CLSI). In kind it is cell-based. The conditions noted are these: Staphylococcus aureus, MRSA, Table 7; a midpoint of 2-fold range; b lowest concentration tested; read-out: MIC, MRSA-2. For orientation: In broth dilution the organism is exposed to a series of concentrations in liquid medium.

Series [8] concerns Staphylococcus epidermidis (ATCC 12228). Nature of the series: MIC assay (broth microdilution, CLSI). It counts as cell-based. The conditions noted are these: Staphylococcus epidermidis, ATCC12228; Table 7; b lowest concentration tested; read-out: MIC, S. epidermidis 12228.
Series [9] relates to Enterococcus faecium (ATCC 700221), VRE. Nature of the series: MIC assay (broth microdilution, CLSI). In kind it is cell-based. The conditions noted are these: Table 7; b lowest concentration tested; read-out: MIC, VRE 700221.
Series [10] relates to VRE (E. faecium ATCC 700221) planktonic cells and biofilms. Nature of the series: Calgary Biofilm Device (CBD) assay, MBC/MBEC. In kind it is cell-based, Enterococcus faecium. The conditions noted are these: Enterococcus; Table 8; c lowest concentration tested; read-out: VRE 700221 MBC.
The subject of series [11] is M. tuberculosis H37Ra (ATCC 25177). Nature of the series: Mycobacterium tuberculosis MIC assay. It counts as cell-based. The conditions noted are these: Mycobacterium tuberculosis. Here is the method:
The culture was then diluted with fresh medium until an OD600 of 0.01 was reached. […] The final DMSO concentration was maintained at 0.5%. […] Three rows were reserved for each compound. […] OD600 absorbance was recorded using SPECTRAMAX M5 (Molecular Devices). Data obtained from three independent experiments were analyzed using Excel.
The culture was then diluted with fresh medium until an OD600 of 0.01 was reached. […] The final DMSO concentration was maintained at 0.5%. […] Three rows were reserved for each compound. […] OD600 absorbance was recorded using SPECTRAMAX M5 (Molecular Devices). Data obtained from three independent experiments were analyzed using EXCEL.

The mark [12] stands for this setting: Table 8, a/b 2-/4-fold range in independent experiments, read-out: MRSA-2 MBC.
Setting [13] is: MRSA-2, + loss, − increase of activity.
[14] abbreviates: S. epidermidis 12228, + loss, − increase of activity.
[15] abbreviates: E. faecium 700221, + loss, − increase of activity.

By MIC is commonly meant the smallest concentration in the dilution series that meets the test's criterion for growth inhibition.

Values after ≈ are worked out from the molar mass of the structure shown. Like-named read-outs stand apart in the source and are kept apart here.

Consider `N#CC(C#N)=NNc1cccc(Cl)c1` [CCCP, carbonyl cyanide m-chlorophenyl hydrazone, reference compound], for which the “% Hemolysis at 200 μM” value is 3.5% in series [1] (red blood cells) and 3.5% in series [1] (Table 8, human red blood cells). Further, the MBC amounted to 31.3 µM (≈ 6.4 µg/mL) in series [2] (Table 5, a/b midpoint of 2-/4-fold range, read-out: MRSA-2 MBC); 31.3 µM (≈ 6.4 µg/mL) in series [2] (setting [12]); 31.3 µM (≈ 6.4 µg/mL) in series [3].
Take `O=C(O)c1cn(C2CC2)c2cc(N3CCNCC3)c(F)cc2c1=O` [Ciprofloxacin, ciprofloxacin, reference compound]: in series [1] (1 h, 37 °C), the “% Hemolysis (200 μM)” value is given as 1.8%.
`Oc1cccc2cccnc12` [Compound 8-HQ, 8-hydroxyquinoline, reference compound]: the “effect of tiron co-treatment on antibacterial activity” value in series [4] (MRSA-2) is “complete loss of antibacterial activity”. Further, the MIC in [4] (MRSA-2, 1 mM Tiron, read-out: MIC with Tiron) was >100 µM; in series [4] (MRSA-2, no additive (Table 9), read-out: MIC), 6.25 µM; in [4] (Staphylococcus aureus, MRSA), 6.25 µM; in series [4] (Staphylococcus aureus, MRSA, read-out: MIC with Cu^2+) it was 3.13 µM; in [4] (Staphylococcus aureus, MRSA, read-out: MIC with Fe^2+), 6.25 µM; in series [4] (Staphylococcus aureus, MRSA, read-out: MIC with Tiron) it was > 100 µM. Besides, the MIC in series [5] (S. epidermidis 12228, 1 mM Tiron, read-out: MIC with Tiron) is >100 µM; in series [5] (S. epidermidis 12228, no additive, read-out: MIC) it was 3.13 µM; in [5] (Staphylococcus epidermidis, 12228), 3.13 µM; in series [5] (Staphylococcus epidermidis, 12228, read-out: MIC with Cu^2+) it was 3.13 µM; in series [5] (Staphylococcus epidermidis, 12228, read-out: MIC with Tiron), > 100 µM; in [6], 18.8 µM. For the same compound, the MIC in [6] (Enterococcus faecium, VRE) was 18.8 µM; in series [6] (Enterococcus faecium, VRE, read-out: MIC with Cu^2+), 18.8 µM; in [6] (Enterococcus faecium, VRE, read-out: MIC with Tiron), > 100 µM; in series [6] (read-out: MIC with Tiron), > 100 µM. The entries for the “Fold Δ (Cu^2+)” value in [4] (setting [13]), in series [5] (setting [14]) and in series [6] (setting [15]) were “n.a. (insignificant changes in MIC values (<2-fold changes))”, “n.a. (insignificant changes in MIC values (≤2-fold changes))” and “n.a. (insignificant changes in MIC values (≤2-fold changes))”, respectively. The “Fold Δ (Fe^2+)” value in series [4] (setting [13]) is “n.a. (insignificant changes in MIC values (<2-fold changes))”. The figures for the “Fold Δ (Tiron)” value in series [4] (setting [13]), in series [5] (setting [14]) and in series [6] (setting [15]) were “+16”, “>+32” and “>+12”, respectively. The “Fold Δ (MIC with Tiron vs MIC)” value in series [4] (MRSA-2, + loss, − increase of antibacterial activity) is recorded as “+16”; in series [5] (setting [14]), “>+32”; in [6] (VRE 700221, + loss, − increase of activity), “>+12”.
`C=CCc1cc(Br)c2nc3ccccc3nc2c1O` [Compound 23, 2-Allyl-4-bromo-1-hydroxyphenazine]: the minimal inhibitory concentration (MIC) in [7], in series [8] and in [9] was > 100 µM each time.
For `O=C(O)CN(CCN(CC(=O)O)CC(=O)O)CC(=O)O` [EDTA, ethylenediaminetetraacetic acid, reference compound], the “% Hemolysis at 200 μM” value in series [1] (human, 1 h, pH 7.2) amounted to 3.0%. In series [3], the MBC came to 1000 µM (≈ 292 µg/mL) and the “MRSE 35984 MBEC” value is > 2000 µM.
As for `CC(=O)N[C@@H](CS)C(=O)O` [NAC, N-acetyl cysteine, reference compound], the MBC in series [2] (Table 4, read-out: MBC, MRSA-2) was > 2000 µM; in series [2] (setting [12]), > 2000 µM; in [3], > 2000 µM; in [10] it was > 2000 µM.
For the compound `CO[C@H]1/C=C/O[C@@]2(C)Oc3c(C)c(O)c4c(O)c(c(/C=N/N5CCN(C)CC5)c(O)c4c3C2=O)NC(=O)/C(C)=C\C=C\[C@H](C)[C@H](O)[C@@H](C)[C@@H](O)[C@@H](C)[C@H](OC(C)=O)[C@@H]1C` [Rifampin, rifampin, reference compound], the MIC in series [8] stood at 0.1 µM (≈ 0.0823 µg/mL). For the same compound, the “% Hemolysis (200 μM)” value in [1] (human, 1 h, pH 7.2) is given as 8.0%.
`[H]/N=C(/N)N[C@H]1[C@H](O)[C@@H](O)[C@H](O[C@@H]2O[C@@H](C)[C@](O)(C=O)[C@H]2O[C@@H]2O[C@@H](CO)[C@H](O)[C@@H](O)[C@@H]2NC)[C@@H](N/C(N)=N\[H])[C@@H]1O` [Streptomycin, streptomycin, reference compound]: the MIC was 1.32 µM (≈ 0.768 µg/mL) in series [11] (168 h, read-out: Mtb MIC) and 1.32 µM (≈ 0.768 µg/mL) in [11] (Table 7, read-out: MIC, M. tuberculosis H37Ra).
For the compound `CN(C)[C@@H]1C(O)=C(C(N)=O)C(=O)[C@@]2(O)C(O)=C3C(=O)c4c(O)cccc4[C@@](C)(O)[C@H]3C[C@@H]12` [Tetracyc., tetracycline, reference compound], the “Fold Δ (Cu^2+)” value in series [4] (setting [13]) is given as “n.a. (insignificant changes in MIC values (<2-fold changes))”. Further, the “Fold Δ (Fe^2+)” value in series [4] (setting [13]) is “+16”. In addition, the MIC in [4] (Staphylococcus aureus, MRSA-2, 200 μM copper(II), read-out: MIC with Cu^2+) was 1.56 µM; in series [4] (Staphylococcus aureus, MRSA-2, 200 μM iron(II), read-out: MIC with Fe^2+), 18.8 µM; in [4] (Staphylococcus aureus, MRSA-2, no additive (Table 9), read-out: MIC), 1.17 µM.
